PubChem BioAssay AID330 (DTP/NCI, 2004)
Several values for one entry are separate records, joined by “and”; a condition that tells them apart may be missing. Identical values can stand only once. Inconclusive results and toxic doses are left out. Rule for the calls: active = survival T/C of 150% or more; inactive = T/C below 125% in these data.

System: P388 leukemia ip, CD2F1 mice, survival T/C
Test: NCI In Vivo Anticancer Drug Screen. Data for tumor model P388 Leukemia (intraperitoneal) in CD2F1 (CDF1) mice
Settings: endpoint: median survival time, higher = longer survival
Outline: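 Mice carrying the transplanted tumor received test compound or vehicle. Survival was recorded in each group, and the value is the treated-group measurement divided by that of the vehicle-treated control group.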

[1] = dose: 12.5 mg/kg/injection, schedule: Q01DX005 (ip), vehicle: saline
[2] = dose: 25.0 mg/kg/injection, schedule: Q01DX005 (ip), vehicle: saline
[3] = dose: 100.0 mg/kg/injection, schedule: Q01DX005 (ip), vehicle: saline
[4] = dose: 60.0 mg/kg/injection, schedule: Q01DX005 (ip), vehicle: saline with Tween-80
[5] = dose: 120.0 mg/kg/injection, schedule: Q01DX005 (ip), vehicle: saline with Tween-80
[6] = dose: 25.0 mg/kg/injection, schedule: Q01DX005 (ip), vehicle: saline with Tween-80
[7] = dose: 50.0 mg/kg/injection, schedule: Q01DX005 (ip), vehicle: saline with Tween-80
[8] = dose: 100.0 mg/kg/injection, schedule: Q01DX005 (ip), vehicle: saline with Tween-80
[9] = dose: 200.0 mg/kg/injection, schedule: Q01DX005 (ip), vehicle: saline with Tween-80
[10] = dose: 50.0 mg/kg/injection, schedule: Q01DX009 (ip), vehicle: saline with Tween-80
[11] = dose: 100.0 mg/kg/injection, schedule: Q01DX009 (ip), vehicle: saline with Tween-80
[12] = dose: 200.0 mg/kg/injection, schedule: Q01DX009 (ip), vehicle: saline with Tween-80
[13] = dose: 50.0 mg/kg/injection, schedule: Q01DX005 (ip), vehicle: saline
[14] = dose: 240.0 mg/kg/injection, schedule: Q01DX005 (ip), vehicle: saline with Tween-80
[15] = dose: 6.25 mg/kg/injection, schedule: Q01DX005 (ip), vehicle: saline with Tween-80

Measured: T/C

C[CH2][Sn]([CH2]C)([CH2]CC(=O)OC)[CH2]CC(=O)OC
inactive: [1] 113 % of control | [2] 120 % of control | [3] 119 % of control

C1=NC(c2ccccn2)=NNC(c2ccccn2)=C1c1ccccc1
inactive: dose: 12.5 mg/kg/injection, schedule: Q01DX009 (ip), vehicle: Klucel (hydroxypropylcellulose) (HPC) 97 % of control | dose: 25.0 mg/kg/injection, schedule: Q01DX009 (ip), vehicle: Klucel (hydroxypropylcellulose) (HPC) 98 % of control | dose: 50.0 mg/kg/injection, schedule: Q01DX009 (ip), vehicle: Klucel (hydroxypropylcellulose) (HPC) 93 % of control | dose: 100.0 mg/kg/injection, schedule: Q01DX009 (ip), vehicle: Klucel (hydroxypropylcellulose) (HPC) 96 % of control | dose: 200.0 mg/kg/injection, schedule: Q01DX009 (ip), vehicle: Klucel (hydroxypropylcellulose) (HPC) 93 % of control

CCCCCCCCCCCC[N+]1(CC)CCCCCC1
inactive: dose: 0.78 mg/kg/injection, schedule: Q01DX009 (ip), vehicle: saline 113 % of control | dose: 1.56 mg/kg/injection, schedule: Q01DX009 (ip), vehicle: saline 111 % of control | dose: 3.12 mg/kg/injection, schedule: Q01DX009 (ip), vehicle: saline 92 % of control

CCCCCCCCCCCCCC[n+]1ccc(C(N)=O)cc1
inactive: dose: 6.25 mg/kg/injection, schedule: Q01DX009 (ip), vehicle: saline with Tween-80 113 % of control | dose: 12.5 mg/kg/injection, schedule: Q01DX009 (ip), vehicle: saline with Tween-80 109 % of control | dose: 25.0 mg/kg/injection, schedule: Q01DX009 (ip), vehicle: saline with Tween-80 100 % of control

CCOc1c(Br)cc(/C=C(\C)[N+](=O)[O-])cc1OC
inactive: [4] 112 % of control | [5] 106 % of control

[N-]=[N+]=CC(=O)C1OC1c1ccc(Br)cc1 (stereo not given)
inactive: [6] 98 % of control | [7] 93 % of control | [8] 91 % of control | [9] 95 % of control

Cc1ccc(-c2csc3nc(C)cc(=O)n23)cc1
inactive: dose: 100.0 mg/kg/injection, schedule: Q04DX003 (ip), vehicle: Klucel (hydroxypropylcellulose) (HPC) 111 % of control | dose: 200.0 mg/kg/injection, schedule: Q04DX003 (ip), vehicle: Klucel (hydroxypropylcellulose) (HPC) 105 % of control | dose: 400.0 mg/kg/injection, schedule: Q04DX003 (ip), vehicle: Klucel (hydroxypropylcellulose) (HPC) 106 % of control

Nn1c(-c2ccc(Cl)c(Cl)c2)nc2ccccc2c1=O
inactive: [10] 89 % of control | [11] 99 % of control | [12] 98 % of control

COc1cc(NCC(C)(O)CN2CCCCC2)c2ncccc2c1 (stereo not given)
inactive: [1] 94 % of control | [2] 98 % of control | [13] 93 % of control and 97 % of control

[O-]/[N+]1=[N+](\[O-])c2ccccc2COCc2ccccc21
inactive: [4] 96 % of control | [5] 93 % of control | [14] 89 % of control

O=C(O)CC(NC(=O)CCl)c1cccs1 (stereo not given)
inactive: dose: 50.0 mg/kg/injection, schedule: Q01DX009 (ip), vehicle: saline 97 % of control | dose: 100.0 mg/kg/injection, schedule: Q01DX009 (ip), vehicle: saline 94 % of control | dose: 200.0 mg/kg/injection, schedule: Q01DX009 (ip), vehicle: saline 98 % of control

O=C(Nc1ccc(Cl)cc1)SC1=NCC(=O)N1c1ccccc1
inactive: dose: 0.78 mg/kg/injection, schedule: Q01DX005 (ip), vehicle: saline with Tween-80 101 % of control | dose: 1.56 mg/kg/injection, schedule: Q01DX005 (ip), vehicle: saline with Tween-80 102 % of control | dose: 3.13 mg/kg/injection, schedule: Q01DX005 (ip), vehicle: saline with Tween-80 98 % of control and 94 % of control | [15] 94 % of control | [6] 89 % of control | [8] 88 % of control | [9] 92 % of control

CCCCCN(CCNc1cc(OC)cc2cccnc12)C(C)CC (stereo not given)
inactive: [1] 112 % of control | [2] 103 % of control | [13] 101 % of control and 97 % of control | [3] 100 % of control

O=C1OC(=O)N2CSCC12 (stereo not given)
inactive: dose: 50.0 mg/kg/injection, schedule: Q01DX005 (ip), vehicle: Klucel (hydroxypropylcellulose) (HPC) 101 % of control | dose: 100.0 mg/kg/injection, schedule: Q01DX005 (ip), vehicle: Klucel (hydroxypropylcellulose) (HPC) 96 % of control | dose: 200.0 mg/kg/injection, schedule: Q01DX005 (ip), vehicle: Klucel (hydroxypropylcellulose) (HPC) 92 % of control

O=C1CCC(Cc2ccccc2Br)C(=O)N1 (stereo not given)
inactive: [4] 99 % of control | [5] 107 % of control | [14] 102 % of control

CCOC(=O)c1ccc(NC(=O)Nc2nncs2)cc1
inactive: dose: 6.25 mg/kg/injection, schedule: Q01DX009 (ip), vehicle: distilled water + Tween-80 114 % of control | dose: 12.5 mg/kg/injection, schedule: Q01DX009 (ip), vehicle: distilled water + Tween-80 119 % of control

CC(=O)C(N)CC(C)C (stereo not given)
inactive: [13] 98 % of control | [3] 100 % of control | dose: 200.0 mg/kg/injection, schedule: Q01DX005 (ip), vehicle: saline 107 % of control

CC(C)(C)OC(=O)NN(CC(=O)OCc1ccccc1)N=O
inactive: dose: 12.5 mg/kg/injection, schedule: Q01DX009 (ip), vehicle: other 104 % of control | dose: 25.0 mg/kg/injection, schedule: Q01DX009 (ip), vehicle: other 97 % of control | dose: 50.0 mg/kg/injection, schedule: Q01DX009 (ip), vehicle: other 97 % of control | dose: 100.0 mg/kg/injection, schedule: Q01DX009 (ip), vehicle: other 101 % of control | dose: 200.0 mg/kg/injection, schedule: Q01DX009 (ip), vehicle: other 97 % of control

COC(=O)C1(CC(=O)c2ccc(OC)cc2)NC(=S)NC(=O)C1C#N (stereo not given)
inactive: dose: 60.0 mg/kg/injection, schedule: Q01DX005 (ip), vehicle: saline 100 % of control | dose: 120.0 mg/kg/injection, schedule: Q01DX005 (ip), vehicle: saline 98 % of control | dose: 240.0 mg/kg/injection, schedule: Q01DX005 (ip), vehicle: saline 86 % of control

CCN(CC)Cc1ccc2ccccc2c1O
inactive: [10] 103 % of control | [11] 89 % of control | [12] 92 % of control

CN1C(=NCCO)NS(=O)(=O)c2ccccc21
inactive: [7] 98 % of control | [8] 100 % of control | [9] 104 % of control

O=c1c(=O)c2cc(O)ccc12
inactive: [7] 109 % of control | [8] 105 % of control | [9] 100 % of control

C/C(=N\NC(=S)N1CCN(c2ccccn2)CC1)c1nccs1
inactive: [15] 105 % of control | dose: 12.5 mg/kg/injection, schedule: Q01DX005 (ip), vehicle: saline with Tween-80 113 % of control

O=[N+]([O-])[O-].OCCNCCNCC[OH2+].OCCNCCNCC[OH2+].[Ni+2]
inactive: dose: 3.13 mg/kg/injection, schedule: Q01DX009 (ip), vehicle: saline 88 % of control | dose: 6.25 mg/kg/injection, schedule: Q01DX009 (ip), vehicle: saline 90 % of control | dose: 12.5 mg/kg/injection, schedule: Q01DX009 (ip), vehicle: saline 102 % of control and 86 % of control

Cc1cc(O)c(O)cc1C/C=C/c1ccccc1
inactive: dose: 2.5 mg/kg/injection, schedule: Q01DX009 (ip), vehicle: saline with Tween-80 101 % of control | dose: 5.0 mg/kg/injection, schedule: Q01DX009 (ip), vehicle: saline with Tween-80 100 % of control | dose: 10.0 mg/kg/injection, schedule: Q01DX009 (ip), vehicle: saline with Tween-80 100 % of control

CC1(C)C(=O)c2cc3ccccc3nc2-c2ccccc21
inactive: [7] 100 % of control | [8] 99 % of control | [9] 105 % of control
